This note sets out measurements from patent US6380201B1, “Methods of treating or ameliorating the symptoms of common cold or allergic rhinitis with serotonin 5-HT1F agonists” (Eli Lilly and Company, priority 1997, dated 2002).

In general, melting point refers to the temperature, or range, at which the solid turns liquid.

Where a name gives a salt, the structure may show the parent alone.

For `CN1CCC(c2c[nH]c3ccc(NC(=O)c4ccc(Cl)cc4)cc23)CC1.O=C(O)/C=C/C(=O)O`, the melting point is 163 °C (dec.). Consider `NC1CCc2[nH]c3ccc(O)cc3c2C1` (stereo not shown), for which the melting point was 230 °C (dec.). On to `Cl.O=C(Nc1ccc2[nH]c3c(c2c1)CC(NCCc1ccc(F)cc1)CC3)c1ccc(F)cc1` (stereo not shown), for which the melting point lay within 210 to 211 °C.

In turn, `CN1CC=C(c2c[nH]c3ccc(NC(=O)c4ccc(Cl)cc4)cc23)CC1` came in with a melting point of 224 to 226 °C. For `CN1CC=C(c2c[nH]c3ccc(NC(=O)c4cccs4)cc23)CC1`, the melting point was 229 to 233 °C (dec.). In the case of `CCCCC(=O)c1ccc2[nH]cc(C3CCN(C)CC3)c2c1.Cl`, the melting point was in the range of 242 to 245 °C. Consider `CC(=O)Nc1ccc2[nH]cc(C3CCN(C)CC3)c2c1`, for which the melting point is 161 to 165 °C (dec.).

Turning to `O=C(Nc1ccc2[nH]cc(C3=CCNCC3)c2c1)c1ccc(F)cc1`, the melting point was 241 °C (dec.). On to `Cl.Oc1ccc2[nH]c3c(c2c1)CC(NCCc1ccc(F)cc1)CC3` (stereo not shown), for which the melting point was 160 °C (dec.).

On to `CN1CCC(c2c[nH]c3ccc(C(=O)c4ccc(OC(F)(F)F)cc4)cc23)CC1`, for which the melting point was 172 to 175 °C. The figure for `CN1CCC(c2c[nH]c3ccc(C(=O)c4ccc(Cl)cc4)cc23)CC1` is 133 °C. The figure for `CN1CCC(c2c[nH]c3ccc(NC(=O)c4cccc5ccccc45)cc23)CC1.Cl` is 193 to 203 °C; for `CCN1CC=C(c2c[nH]c3ccc(NC(=O)c4ccc(F)cc4)cc23)CC1` it is 127 to 135 °C (dec.). As for `Cc1[nH]c2ccc(NS(C)(=O)=O)cc2c1C1CCN(C)CC1`, the figure is 124 to 128 °C; as for `CN1CCC(c2c[nH]c3ccc(N(S(=O)(=O)C(F)(F)F)S(=O)(=O)C(F)(F)F)cc23)CC1.Cl`, 175 to 185 °C (dec.).

On to `CCN1CCC(c2c[nH]c3ccc(NC(=O)c4ccco4)cc23)CC1`, for which the melting point lay within 178 to 179 °C. For the molecule `CN1CCC(c2c[nH]c3ccc(NC(=O)Cc4ccccc4)cc23)CC1.O=C(O)C(=O)O`, the melting point was < 90 °C. With `CC(C)N1CCC(c2c[nH]c3ccc(NS(C)(=O)=O)cc23)CC1` (as salt: salt), the melting point was in the range of 104 to 108 °C. `Cc1ccc(C(=O)c2ccc3[nH]cc(C4CCN(C)CC4)c3c2)cc1` displayed a melting point of 92 °C. As for `CN1CCC(c2c[nH]c3ccc(NC(=O)c4cccc(Cl)c4)cc23)CC1.O=C(O)/C=C/C(=O)O`, the melting point is 185 °C (dec.). In turn, `CN1CCC(c2c[nH]c3ccc(C(=O)Cc4ccccc4)cc23)CC1` came in with a melting point of 69 °C. `CCN1CCC(c2c[nH]c3ccc(NC(=O)c4ccc(F)cc4)cc23)CC1.O=C(O)/C=C/C(=O)O`: the melting point was in the range of 152 to 155 °C. Molecule `CN1CCC(c2c[nH]c3ccc(Sc4ccccn4)cc23)CC1` returned a melting point of 83 °C. For the molecule `CCC(=O)Nc1ccc2[nH]cc(C3CCN(C)CC3)c2c1.O=C(O)/C=C/C(=O)O`, the melting point was 88 to 92 °C (dec.).

The molecule `Cc1[nH]c2ccc(NS(C)(=O)=O)cc2c1C1=CCN(C)CC1` came in with a melting point of 176 to 184 °C. As for `CCCCN1CC=C(c2c[nH]c3ccc(NS(C)(=O)=O)cc23)CC1`, the figure is 202 to 204 °C; as for `CN1CCC(c2c[nH]c3ccc(NC(=O)C(C)(C)C)cc23)CC1`, 214 to 216 °C (dec.). `CN1CCC(c2c[nH]c3ccc(NC(=O)c4ccccc4)cc23)CC1.O=C(O)C(=O)O` had a melting point of 130 °C.

`CN1CCC(c2c[nH]c3ccc(C(=O)c4ccc(N(C)C)cc4)cc23)CC1` came in with a melting point of 103 to 104 °C. In the case of `COc1ccc(C(=O)Nc2ccc3[nH]cc(C4=CCN(C)CC4)c3c2)cc1`, the melting point was 232 °C (dec.).

In turn, `Br.CN(C)C1CCc2[nH]c3ccc(NC(=O)C4CCC4)cc3c2C1` (stereo not shown) displayed a melting point of 214 to 216 °C.

`CCS(=O)(=O)Nc1ccc2[nH]cc(C3CCN(C)CC3)c2c1` gave a melting point of 176 to 178 °C. For the molecule `O=C(Nc1ccc2[nH]cc(C3CCNCC3)c2c1)c1ccc(F)cc1`, the melting point is 229 to 230 °C. In turn, `CCC(=O)Nc1ccc2[nH]cc(C3=CCN(C)CC3)c2c1.O=C(O)/C=C/C(=O)O` gave a melting point of 170 to 173 °C. `CN1CC=C(c2c[nH]c3ccc(NS(C)(=O)=O)cc23)CC1` gave a melting point of 210 to 214 °C. On to `COc1ccccc1C(=O)Nc1ccc2[nH]cc(C3CCN(C)CC3)c2c1.O=C(O)/C=C/C(=O)O`, for which the melting point was 90 °C (dec.). In turn, `CN1CCC(c2c[nH]c3ccc(C(=O)c4ccccc4)cc23)CC1` came in with a melting point of 101 °C. On to `CN1CCC(c2c[nH]c3ccc(NC(=O)c4ccccc4Cl)cc23)CC1.O=C(O)/C=C/C(=O)O`, for which the melting point is 209 °C (dec.).

`CN1CCC(c2c[nH]c3ccc(NC(=O)c4ccc(F)cc4Cl)cc23)CC1` came in with a melting point of 159 to 162 °C. Turning to `CC(=O)c1ccc2[nH]c3c(c2c1)CC(N(C)C)CC3` (stereo not shown), the melting point is 181 to 182 °C. The molecule `CN1CCC(c2c[nH]c3ccc(SCc4ccccc4)cc23)CC1` gave a melting point of 138 to 141 °C.

`CCS(=O)(=O)Nc1ccc2[nH]cc(C3=CCN(C)CC3)c2c1`: the melting point lay in the range of 224 to 226 °C. In the case of `Cl.O=C(Nc1ccc2[nH]c3c(c2c1)CC(NCCc1ccccc1)CC3)c1ccc(F)cc1` (stereo not shown), the melting point was 207 to 208 °C. The molecule `CN(C)[C@@H]1CCc2c([nH]c3ccc(Br)cc23)C1.I` came in with a melting point of 252 °C. Regarding `CN1CCC(c2c[nH]c3ccc(NS(C)(=O)=O)cc23)CC1.O=C(O)C(=O)O`, the melting point stood at 119.1 °C.

For the molecule `CCCCN1CCC(c2c[nH]c3ccc(NS(C)(=O)=O)cc23)CC1`, the melting point was found to be 78 °C.

In the case of `COc1cccc(C(=O)Nc2ccc3[nH]cc(C4CCN(C)CC4)c3c2)c1.O=C(O)/C=C/C(=O)O`, the melting point was 152 °C (dec.).

The molecule `Cl.Oc1ccc2[nH]c3c(c2c1)CC(NCCc1ccccc1)CC3` (stereo not shown) came in with a melting point of 178 to 180 °C. The figure for `Br.CN(C)C1CCc2[nH]c3ccc(NC(=O)C4CC4)cc3c2C1` (stereo not shown) is 216 to 218 °C. As to `CN1CC=C(c2c[nH]c3ccc(NC(=O)c4ccc(F)cc4Cl)cc23)CC1`, the melting point lay in the range of 212 to 222 °C. The figure for `CN1CCC(c2c[nH]c3ccc(C(=O)c4ccc(C(F)(F)F)cc4)cc23)CC1` is 160 to 162 °C; for `Cl.Cn1cc(CCNC2CCc3[nH]c4ccc(O)cc4c3C2)cn1` (stereo not shown) it is 286 °C (dec.). Regarding `CN1CC=C(c2c[nH]c3ccc(NC(=O)c4ccco4)cc23)CC1`, the melting point is 190 °C (dec.). `CC(=O)c1ccc2[nH]cc(C3CCN(C)CC3)c2c1.Cl.O` (hydrate or solvate) yielded a melting point of 65 °C.

With `Cl.Clc1ccc(CCNC2CCc3[nH]c4ccc(OCc5ccccc5)cc4c3C2)cc1` (stereo not shown), the melting point was 238 to 240 °C. As for `CN1CCC(c2c[nH]c3ccc(NC(=O)c4ccco4)cc23)CC1.O=C(O)/C=C/C(=O)O`, the figure is 114 °C (dec.). For `CN1CCC(c2c[nH]c3ccc(NS(=O)(=O)c4ccccc4)cc23)CC1`, the melting point was 246 to 249 °C (dec.). Take `CN1CCC(c2c[nH]c3ccc(N4C(=O)c5ccccc5C4=O)cc23)CC1.O=C(O)C(=O)O`: the melting point was 224 °C. On to `CN1CCC(c2c[nH]c3ccc(NC(=O)c4ccc5ccccc5c4)cc23)CC1`, for which the melting point was 153 to 155.5 °C. The figure for `Br.CN(C)C1CCc2[nH]c3ccc(NC(=O)C4CCCCC4)cc3c2C1` (stereo not shown) is 224 to 226 °C; for `CN1CCC(c2c[nH]c3ccc(NS(=O)(=O)c4ccc(I)cc4)cc23)CC1` it is > 250 °C; for `CN1CCC(c2c[nH]c3ccc(C(=O)c4ccccn4)cc23)CC1` it is 90 °C.

`CN1CCC(c2c[nH]c3ccc(Sc4ccc(Cl)cc4)cc23)CC1` gave a melting point of 148 to 150 °C. With `CCN1CCC(c2c[nH]c3ccc(NS(C)(=O)=O)cc23)CC1`, the melting point is 179 to 181 °C. The molecule `CN1CC=C(c2c[nH]c3ccc(NS(=O)(=O)N(C)C)cc23)CC1` showed a melting point of 207 to 208 °C.

Take `CN1CCC(c2c[nH]c3ccc(NS(=O)(=O)N(C)C)cc23)CC1`: the melting point was 179 to 181 °C (dec.). With `CN1CC=C(c2c[nH]c3ccc(NC(=O)c4ccccc4)cc23)CC1`, the melting point was > 250 °C. Molecule `CN1CC=C(c2cn(C)c3ccc(NS(C)(=O)=O)cc23)CC1` displayed a melting point of 198 to 202 °C. The molecule `Cl.NC1CCc2[nH]c3ccc(NC(=O)c4ccc(F)cc4)cc3c2C1` (stereo not shown) yielded a melting point of 252 to 255 °C.

The molecule `Br.C=C(C)C(=O)Nc1ccc2[nH]c3c(c2c1)CC(N(C)C)CC3` (stereo not shown) yielded a melting point of 236 to 238 °C. As to `CCN1CC=C(c2c[nH]c3ccc(NS(C)(=O)=O)cc23)CC1`, the melting point is 218 to 219 °C (dec.). Consider `COc1ccc(C(=O)Nc2ccc3[nH]cc(C4CCN(C)CC4)c3c2)cc1.O=C(O)/C=C/C(=O)O`, for which the melting point was 151 °C (dec.). In turn, `COc1ccc(Sc2ccc3[nH]cc(C4CCN(C)CC4)c3c2)cc1` returned a melting point of 160 to 162 °C.

For the molecule `CC(=O)Nc1ccc2[nH]cc(C3=CCN(C)CC3)c2c1`, the melting point was in the range of 186 to 189 °C. For `CCCN1CC=C(c2c[nH]c3ccc(NS(C)(=O)=O)cc23)CC1`, the melting point is 217 to 218.5 °C (dec.).

`CC(C)n1cc(CCNC2CCc3[nH]c4ccc(O)cc4c3C2)cn1.Cl` (stereo not shown) gave a melting point of 251 to 253 °C. Molecule `CN1CCC(c2c[nH]c3ccc(C(=O)c4ccc(F)cc4)cc23)CC1` showed a melting point of 89 °C. `CN1CCC(c2c[nH]c3ccc(C(=O)c4ccc5ccccc5c4)cc23)CC1`: the melting point came out at 92 °C. For `CN1CCC(c2c[nH]c3ccc(Sc4ccccc4)cc23)CC1`, the melting point fell in the range of 147 to 150 °C. Take `CC(C)N1CC=C(c2c[nH]c3ccc(NS(C)(=O)=O)cc23)CC1`: the melting point was 211 to 213 °C (dec.). `CCCN1CCC(c2c[nH]c3ccc(NS(C)(=O)=O)cc23)CC1` showed a melting point of 87 to 90 °C. As for `CN1CCC(c2c[nH]c3ccc(NC(=O)Nc4ccccc4)cc23)CC1.Cl`, the figure is 215 to 220 °C.
